Data set [1] addresses T1, E. coli ADP-glucose pyrophosphorylase (ADP-Glc PPase) (Escherichia coli, UniProt P0A6V1).
T1 construct: gene glgC
T1 sequence (P0A6V1 1-431): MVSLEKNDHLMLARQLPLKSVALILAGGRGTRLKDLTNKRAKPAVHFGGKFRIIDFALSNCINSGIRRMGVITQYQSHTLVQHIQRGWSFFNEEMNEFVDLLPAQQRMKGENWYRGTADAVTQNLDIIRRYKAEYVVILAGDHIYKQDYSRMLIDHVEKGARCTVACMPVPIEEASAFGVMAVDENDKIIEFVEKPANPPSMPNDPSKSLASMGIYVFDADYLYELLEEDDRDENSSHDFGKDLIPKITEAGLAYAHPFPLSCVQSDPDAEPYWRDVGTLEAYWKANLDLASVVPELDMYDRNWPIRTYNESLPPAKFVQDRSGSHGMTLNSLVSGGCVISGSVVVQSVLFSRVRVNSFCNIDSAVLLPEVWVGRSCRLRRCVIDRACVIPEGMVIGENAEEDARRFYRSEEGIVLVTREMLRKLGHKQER
In words: thermal shift assay, SYPRO Orange. It counts as binding. The conditions noted are these: read-out: dTm at 1 mM.

The target in data set [2] is T2, E. coli ADP-glucose pyrophosphorylase (ADP-Glc PPase) (Escherichia coli, UniProt P0A6V1, R130A).
T2 construct: gene glgC
T2 sequence (P0A6V1 1-431 R130A): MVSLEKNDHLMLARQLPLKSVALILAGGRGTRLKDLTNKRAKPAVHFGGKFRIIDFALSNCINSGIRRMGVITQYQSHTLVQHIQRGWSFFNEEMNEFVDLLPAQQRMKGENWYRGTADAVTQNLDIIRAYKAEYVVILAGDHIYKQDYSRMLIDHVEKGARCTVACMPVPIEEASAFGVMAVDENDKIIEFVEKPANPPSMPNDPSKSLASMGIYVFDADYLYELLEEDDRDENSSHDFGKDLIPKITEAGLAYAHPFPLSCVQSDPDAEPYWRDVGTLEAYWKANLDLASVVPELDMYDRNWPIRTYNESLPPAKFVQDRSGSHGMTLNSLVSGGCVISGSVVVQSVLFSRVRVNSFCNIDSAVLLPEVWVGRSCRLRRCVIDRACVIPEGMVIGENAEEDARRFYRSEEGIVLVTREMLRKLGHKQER
In words: ADP-glucose synthesis, colorimetric phosphate detection after pyrophosphatase. It counts as biochemical. An excerpt: (§1) ADP-glucose synthesis, colorimetric phosphate detection after pyrophosphatase on E. coli ADP-glucose pyrophosphorylase (ADP-Glc PPase)

Data set [3] has as its target T1, E. coli ADP-glucose pyrophosphorylase (ADP-Glc PPase). The description is as above. It counts as biochemical.
Description: as §1

In data set [4] the target is T3, E. coli ADP-glucose pyrophosphorylase (ADP-Glc PPase) (Escherichia coli, UniProt P0A6V1, R386A).
T3 construct: gene glgC
T3 sequence (P0A6V1 1-431 R386A): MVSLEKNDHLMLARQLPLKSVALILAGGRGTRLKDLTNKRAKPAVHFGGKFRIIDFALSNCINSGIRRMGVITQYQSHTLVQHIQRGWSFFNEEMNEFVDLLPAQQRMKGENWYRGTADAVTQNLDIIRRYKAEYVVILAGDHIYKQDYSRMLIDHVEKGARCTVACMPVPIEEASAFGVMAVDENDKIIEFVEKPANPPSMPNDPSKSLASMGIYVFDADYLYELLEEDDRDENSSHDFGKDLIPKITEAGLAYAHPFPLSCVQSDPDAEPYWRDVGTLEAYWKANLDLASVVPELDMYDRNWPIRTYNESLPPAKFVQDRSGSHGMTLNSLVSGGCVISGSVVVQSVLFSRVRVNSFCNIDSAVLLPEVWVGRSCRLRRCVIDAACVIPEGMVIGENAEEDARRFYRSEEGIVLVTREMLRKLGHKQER
The data set is described as above. It counts as biochemical.
Description: as §1

The target in data set [5] is T4, E. coli ADP-glucose pyrophosphorylase (ADP-Glc PPase) (Escherichia coli, UniProt P0A6V1, R419A).
T4 construct: gene glgC
T4 sequence (P0A6V1 1-431 R419A): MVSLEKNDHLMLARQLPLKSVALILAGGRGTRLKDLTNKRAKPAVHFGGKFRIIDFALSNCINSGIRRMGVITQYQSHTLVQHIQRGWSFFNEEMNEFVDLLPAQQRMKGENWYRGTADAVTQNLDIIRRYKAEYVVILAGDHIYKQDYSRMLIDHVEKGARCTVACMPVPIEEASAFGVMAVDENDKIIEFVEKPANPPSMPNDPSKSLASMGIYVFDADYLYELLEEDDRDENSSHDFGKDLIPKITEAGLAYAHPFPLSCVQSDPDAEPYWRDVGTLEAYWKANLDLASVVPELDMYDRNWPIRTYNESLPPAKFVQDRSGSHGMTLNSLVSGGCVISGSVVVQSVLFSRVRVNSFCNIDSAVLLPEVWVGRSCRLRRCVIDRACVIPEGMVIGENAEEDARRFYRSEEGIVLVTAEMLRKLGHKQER
The data set is described as above. It counts as biochemical.
Description: as §1

For data set [6], the target named is T5, E. coli ADP-glucose pyrophosphorylase (ADP-Glc PPase) (Escherichia coli, UniProt P0A6V1, R423A).
T5 construct: gene glgC
T5 sequence (P0A6V1 1-431 R423A): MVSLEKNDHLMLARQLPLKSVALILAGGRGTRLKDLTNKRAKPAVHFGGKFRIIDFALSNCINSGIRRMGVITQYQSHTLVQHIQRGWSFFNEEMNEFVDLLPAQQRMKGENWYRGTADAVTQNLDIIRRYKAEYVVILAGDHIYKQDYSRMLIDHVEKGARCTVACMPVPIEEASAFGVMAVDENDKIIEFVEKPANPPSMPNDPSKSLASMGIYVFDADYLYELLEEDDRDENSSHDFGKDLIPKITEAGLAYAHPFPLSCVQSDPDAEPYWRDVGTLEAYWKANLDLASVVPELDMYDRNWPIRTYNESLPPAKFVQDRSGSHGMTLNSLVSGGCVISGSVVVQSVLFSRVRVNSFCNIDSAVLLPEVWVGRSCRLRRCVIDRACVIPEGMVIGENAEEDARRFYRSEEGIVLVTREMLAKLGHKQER
The description is as above. In kind it is biochemical.
Description: as §1

In data set [7] the target is T6, E. coli ADP-glucose pyrophosphorylase (ADP-Glc PPase) (Escherichia coli, UniProt P0A6V1, R353A).
T6 construct: gene glgC
T6 sequence (P0A6V1 1-431 R353A): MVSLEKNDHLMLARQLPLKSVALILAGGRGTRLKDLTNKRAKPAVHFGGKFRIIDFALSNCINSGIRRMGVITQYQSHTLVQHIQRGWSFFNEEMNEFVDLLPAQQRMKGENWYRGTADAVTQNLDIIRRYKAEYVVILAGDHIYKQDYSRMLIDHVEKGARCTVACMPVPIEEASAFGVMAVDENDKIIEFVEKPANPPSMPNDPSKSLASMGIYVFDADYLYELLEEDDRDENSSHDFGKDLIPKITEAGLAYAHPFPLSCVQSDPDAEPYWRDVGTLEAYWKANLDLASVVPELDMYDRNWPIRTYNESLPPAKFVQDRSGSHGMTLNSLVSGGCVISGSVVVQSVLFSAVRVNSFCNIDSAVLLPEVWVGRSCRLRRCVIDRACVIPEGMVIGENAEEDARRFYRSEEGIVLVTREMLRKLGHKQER
Described as above. It counts as biochemical.
Description: as §1

The target of data set [8] is T7, E. coli ADP-glucose pyrophosphorylase (ADP-Glc PPase) (Escherichia coli, UniProt P0A6V1, R40A).
T7 construct: gene glgC
T7 sequence (P0A6V1 1-431 R40A): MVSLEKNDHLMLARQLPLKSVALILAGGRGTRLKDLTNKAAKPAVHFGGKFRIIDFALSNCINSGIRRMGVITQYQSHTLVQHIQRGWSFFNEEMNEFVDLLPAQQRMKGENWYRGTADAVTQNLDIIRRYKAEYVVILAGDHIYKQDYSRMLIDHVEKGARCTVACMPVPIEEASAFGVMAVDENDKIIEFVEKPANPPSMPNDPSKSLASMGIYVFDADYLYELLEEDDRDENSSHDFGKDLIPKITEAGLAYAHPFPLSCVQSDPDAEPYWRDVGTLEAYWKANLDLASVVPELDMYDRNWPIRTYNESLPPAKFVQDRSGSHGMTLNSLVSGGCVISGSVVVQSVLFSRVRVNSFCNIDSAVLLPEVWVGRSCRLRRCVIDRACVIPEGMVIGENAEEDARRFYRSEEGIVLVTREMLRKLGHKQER
The data set is described as above. The following applies: read-out: PLP / A0.5 /. It counts as biochemical.
Description: as §1

Data set [9] deals with T8, E. coli ADP-glucose pyrophosphorylase (ADP-Glc PPase) (Escherichia coli, UniProt P0A6V1, R52K).
T8 construct: gene glgC
T8 sequence (P0A6V1 1-431 R52K): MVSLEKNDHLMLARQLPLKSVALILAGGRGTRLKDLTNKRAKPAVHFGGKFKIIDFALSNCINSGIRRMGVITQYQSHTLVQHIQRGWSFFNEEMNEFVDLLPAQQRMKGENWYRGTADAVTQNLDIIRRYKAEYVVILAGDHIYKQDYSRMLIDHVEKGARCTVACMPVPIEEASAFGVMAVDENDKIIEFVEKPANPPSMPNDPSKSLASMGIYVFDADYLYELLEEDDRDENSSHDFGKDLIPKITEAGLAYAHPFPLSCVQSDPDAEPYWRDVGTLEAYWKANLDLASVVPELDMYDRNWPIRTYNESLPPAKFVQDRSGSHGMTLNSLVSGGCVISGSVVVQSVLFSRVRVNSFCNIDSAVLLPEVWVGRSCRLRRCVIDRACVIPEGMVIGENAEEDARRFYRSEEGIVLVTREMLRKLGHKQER
The description is as above. In kind it is biochemical. The conditions noted are these: read-out: PLP / A0.5 /.
Description: as §1

Substrate in data set [10]: Nc1ncnc2c1ncn2[C@@H]1O[C@H](COP(=O)(O)OP(=O)(O)OP(=O)(O)O)[C@@H](O)[C@H]1O
Described as above. It counts as biochemical, Escherichia coli. The following applies: no activator (control), 1 mM Glc1P, 10 mM MgCl2, 50 mM HEPES pH 8.0. The method, then: One was measured in absence (control)

Where [11] appears, read: activator, allosteric, 1.0 mM Glc1P, 1.5 mM ATP, 10 mM MgCl2, pH 8.0, read-out: FBP / A0.5 /.

Where two headings read alike, the source gives them in different places.

Turning to `O=P(O)(O)OC[C@H]1OC(O)(COP(=O)(O)O)[C@@H](O)[C@@H]1O` (stereo partly shown) [FBP], in data set [1], the ΔTm at 1000 µM turned out to be 13.2 °C. Also, the EC50 in data set [2] (setting [11]) was 67 ± 10 µM; in data set [3] (setting [11]), 27 ± 9 µM; in data set [4] (setting [11]), 1000 ± 130 µM; in [5] (setting [11]), 36 ± 11 µM; in data set [6] (setting [11]) it was 320 ± 50 µM; in data set [7] (setting [11]) it was 40 ± 10 µM.

As for `Cc1ncc(COP(=O)(O)O)c(C=O)c1O` [PLP], the EC50 in [2] (read-out: PLP / A0.5 /) is 1.29 ± 0.23 µM; in data set [3] (read-out: PLP / A0.5 /), 0.075 ± 0.004 µM; in data set [4] (read-out: PLP / A0.5 /), 4.2 ± 0.6 µM; in data set [5] (read-out: PLP / A0.5 /) it was 0.019 ± 0.005 µM; in data set [6] (read-out: PLP / A0.5 /), 0.21 ± 0.01 µM; in data set [8] it was 0.48 ± 0.22 µM. For the same molecule, the EC50 in data set [7] (read-out: PLP / A0.5 /) is 0.16 ± 0.01 µM; in data set [9] it was 0.22 ± 0.05 µM.

B1: E. coli ADP-glucose pyrophosphorylase (ADP-Glc PPase) (Escherichia coli K-12) (protein)
chain: MVSLEKNDHLMLARQLPLKSVALILAGGRGTRLKDLTNKRAKPAVHFGGKFRIIDFALSNCINSGIRRMGVITQYQSHTLVQHIQRGWSFFNEEMNEFVDLLPAQQRMKGENWYRGTADAVTQNLDIIRRYKAEYVVILAGDHIYKQDYSRMLIDHVEKGARCTVACMPVPIEEASAFGVMAVDENDKIIEFVEKPANPPSMPNDPSKSLASMGIYVFDADYLYELLEEDDRDENSSHDFGKDLIPKITEAGLAYAHPFPLSCVQSDPDAEPYWRDVGTLEAYWKANLDLASVVPELDMYDRNWPIRTYNESLPPAKFVQDRSGSHGMTLNSLVSGGCVISGSVVVQSVLFSRVRVNSFCNIDSAVLLPEVWVGRSCRLRRCVIDRACVIPEGMVIGENAEEDARRFYRSEEGIVLVTREMLRKLGHKQER
In the case of B1, in [10], the K0.5 is given as 1.75 ± 0.09 mM.

The values above are taken from PMC6773804, “Mapping of a Regulatory Site of the Escherichia coli ADP-Glucose Pyrophosphorylase” (Frontiers in Molecular Biosciences, 2019).
